Earlier results, collected in patent US20030013675A1 (Boehringer Ingelheim Pharma KG, priority 2001, published 2003).

Key:
[1] = test system: guinea pig eosinophils
[2] = inhaled at several times the recommended dose
[3] = test system: antigen-challenged pig; details: in vivo
[4] = test system: Human Neutrophils
[5] = test system: adherent human monocyte; details: in particular human peripheral blood monocyte

CCNC(=O)[C@@H]1O[C@H](n2cnc3c(N)ncnc32)[C@@H](O)[C@H]1O [NECA]
zymosan-stimulated oxidative activity in guinea pig eosinophils [1]: inhibits

C[N+]1(C)[C@@H]2C[C@@H](OC(=O)C(O)(c3cccs3)c3cccs3)C[C@H]1[C@@H]1O[C@@H]12 [tiotropium, (1α, 2β, 4β, 5α, 7β)-7-[(hydroxydi-2-thienylacetyl)oxy]-9,9-dimethyl-3-oxa-9-azoniatricyclo[3.3.1.0^2,4]nonane bromide]
change in heart rate, blood pressure, bladder function, intraocular pressure, or pupillary diameter [2]: little or no change

CCCn1c(=O)c2c(C)nc(CC)n2c2nc(OC)ccc21 [Example D-22888]
antiallergic effect [3]: strong antiallergic affect | rhinorrhea in the antigen-challenged pig [3]: inhibit rhinorrhea

CCNC(=O)[C@H]1OC(n2cnc3c(N)nc(NCCc4ccc(CCC(=O)O)cc4)nc32)[C@H](O)[C@@H]1O (stereo partly shown) [CGS 21680]
neutrophil superoxidase release [4]: inhibits | endotoxin-stimulated adherent human monocyte TNFα production [5]: decreases

CC[N+]1(C)[C@@H]2CC(OC(=O)[C@H](CO)c3ccccc3)C[C@H]1[C@@H]1O[C@@H]12 (stereo partly shown) [oxitropium]
change in heart rate, blood pressure, bladder function, intraocular pressure, or pupillary diameter [2]: little or no change
